Where two headings read alike, the source gives them in different places.
Biological target: T1, PRMT5/MEP50 (Homo sapiens, UniProt O14744)
T1 construct: Expressed full-length human Flag-PRMT5/6His-MeP50 protein complex was purified; made in house; host or cells: Spodoptera frugiperda (SF9) insect cells, baculovirus (pDEST8)
Experiment: PRMT5 Biochemical Assay (PRMT5/MEP50 enzyme assay on peptide substrate, 3H-SAM Flashplate)
Conditions: read-out: Biochemical IC50

[1] = Table A-2, PRMT5/MEP50 4 nM, 3H-SAM 75 nM, peptide 40 nM

T1 sequence (O14744 with tags, fused parts or gaps): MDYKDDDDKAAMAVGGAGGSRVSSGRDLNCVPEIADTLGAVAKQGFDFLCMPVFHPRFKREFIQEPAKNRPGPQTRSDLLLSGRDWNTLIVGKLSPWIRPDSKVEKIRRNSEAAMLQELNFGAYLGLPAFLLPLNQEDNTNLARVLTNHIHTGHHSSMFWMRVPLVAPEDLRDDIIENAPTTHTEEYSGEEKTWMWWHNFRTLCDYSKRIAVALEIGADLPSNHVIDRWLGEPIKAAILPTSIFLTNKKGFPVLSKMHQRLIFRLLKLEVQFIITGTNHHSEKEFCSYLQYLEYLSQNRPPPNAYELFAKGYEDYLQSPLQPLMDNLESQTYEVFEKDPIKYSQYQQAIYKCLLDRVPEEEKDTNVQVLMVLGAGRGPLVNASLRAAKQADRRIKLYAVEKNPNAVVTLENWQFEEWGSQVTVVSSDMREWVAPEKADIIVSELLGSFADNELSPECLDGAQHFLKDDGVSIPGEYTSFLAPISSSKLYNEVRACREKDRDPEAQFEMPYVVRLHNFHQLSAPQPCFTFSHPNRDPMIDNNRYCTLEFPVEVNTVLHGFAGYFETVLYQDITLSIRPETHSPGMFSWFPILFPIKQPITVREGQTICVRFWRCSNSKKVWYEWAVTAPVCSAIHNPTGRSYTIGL
T1 sequence (Q9BQA1 with tags, fused parts or gaps partner limits assumed): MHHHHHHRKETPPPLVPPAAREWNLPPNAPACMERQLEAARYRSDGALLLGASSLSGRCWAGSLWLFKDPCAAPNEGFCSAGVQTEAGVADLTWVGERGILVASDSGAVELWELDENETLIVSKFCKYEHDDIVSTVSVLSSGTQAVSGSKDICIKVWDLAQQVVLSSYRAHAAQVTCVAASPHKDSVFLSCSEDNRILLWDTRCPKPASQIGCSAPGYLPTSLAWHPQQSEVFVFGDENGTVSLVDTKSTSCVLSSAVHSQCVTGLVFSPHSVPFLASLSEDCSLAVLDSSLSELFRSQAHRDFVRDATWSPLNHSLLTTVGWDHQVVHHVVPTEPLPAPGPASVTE

Row | Structure (SMILES) | IC50 [1] [nM] | IC50 (Table D-2) [nM]
1 | O=C(COc1cccc(CN2CCOCC2)c1)NCC(O)CN1CCc2ccccc2C1 (centres unmarked) [Compound A75] | < 100 | –
2 | C[C@H](Oc1cccc2cccnc12)C(=O)NC[C@H](O)CN1CCc2ccccc2C1 [Compound A76] | < 100 | –
3 | O=C(COc1ccccc1N1CCOCC1)NC[C@H](O)CN1CCc2ccccc2C1 [Compound A77] | < 100 | –
4 | O=C(COc1ccccc1N1CCNCC1)NCC(O)CN1CCc2ccccc2C1 (centres unmarked) [Compound A79] | < 100 | –
5 | CN1C(=O)COc2cccc(OCC(=O)NCC(O)CN3CCc4ccccc4C3)c21 (centres unmarked) [Compound A80] | < 100 | –
6 | CN1CCOc2cccc(OCC(=O)NCC(O)CN3CCc4ccccc4C3)c21 (centres unmarked) [Compound A81] | < 100 | –
7 | Cn1ncc2c(OCC(=O)NCC(O)CN3CCc4ccccc4C3)cccc21 (centres unmarked) [Compound A82] | < 100 | –
8 | O=C(COc1cccc(C(=O)N2CCOCC2)c1)NCC(O)CN1CCc2ccccc2C1 (centres unmarked) [Compound A83] | 101 to 1000 | –
9 | CN1CCN(c2ccccc2OCC(=O)NC[C@H](O)CN2CCc3ccccc3C2)CC1 [Compound A84] | < 100 | –
10 | O=C(COc1ccccc1OCCN1CCOCC1)NC[C@H](O)CN1CCc2ccccc2C1 [Compound A86] | < 100 | –
11 | CN(C)CCOc1ccccc1OCC(=O)NC[C@H](O)CN1CCc2ccccc2C1 [Compound A88] | < 100 | –
12 | CC(=O)N1CCN(c2ccccc2OCC(=O)NCC(O)CN2CCc3ccccc3C2)CC1 (centres unmarked) [Compound A90] | < 100 | –
13 | O=C(COc1cccc2c1CCNC2)NCC(O)CN1CCc2ccccc2C1 (centres unmarked) [Compound A91] | < 100 | –
14 | O=C(COc1cccc2nccnc12)NCC(O)CN1CCc2ccccc2C1 (centres unmarked) [Compound A92] | < 100 | –
15 | O=C(COc1cccc(NC2CCOCC2)c1)NCC(O)CN1CCc2ccccc2C1 (centres unmarked) [Compound A93] | < 100 | –
16 | O=C(COc1c(CN2CCOCC2)ccc2cccnc12)NC[C@H](O)CN1CCc2ccccc2C1 [Compound A94] | < 100 | –
17 | O=C(COc1ccc2c(cnn2C2CCNC2)c1)NCC(O)CN1CCc2ccccc2C1 (centres unmarked) [Compound A95] | < 100 | –
18 | Cn1cnc2ccc(-c3cccc(NCC(O)CN4CCc5ccccc5C4)c3)cc21 (centres unmarked) [Compound D102] | – | < 100
19 | OC(COc1cccc(-c2ccc3ncn(C4CCOCC4)c3c2)c1)CN1CCc2ccccc2C1 (centres unmarked) [Compound D103] | – | 101 to 1000
20 | OC(COc1cccc(-c2ccc3ncn(-c4ccccc4)c3c2)c1)CN1CCc2ccccc2C1 (centres unmarked) [Compound D104] | – | 101 to 1000
21 | OC(COc1cccc(-c2ccc3ncn(Cc4ccccc4)c3c2)c1)CN1CCc2ccccc2C1 (centres unmarked) [Compound D105] | – | < 100
22 | CN(CC(O)CN1CCc2ccccc2C1)c1cccc(CNC2CCOCC2)c1 (centres unmarked) [Compound D116] | – | < 100

Row | Structure (SMILES) | IC50 [1] [nM] | IC50 (Table D-2) [nM]
23 | Cn1cnc2ccc(-c3cccc(NCC(O)CN4CCc5ccccc5C4)n3)cc21 (centres unmarked) [Compound D117] | – | 101 to 1000
24 | Cn1cnc2ccc(-c3ccnc(NCC(O)CN4CCc5ccccc5C4)c3)cc21 (centres unmarked) [Compound D118] | – | < 100
25 | Cn1cnc2ccc(-c3ccnc(NCC(O)CN4CCc5ccccc5C4)n3)cc21 (centres unmarked) [Compound D119] | – | 101 to 1000
26 | Cn1cnc2ccc(-c3cncc(NCC(O)CN4CCc5ccccc5C4)n3)cc21 (centres unmarked) [Compound D121] | – | 101 to 1000
27 | OC(COc1cccc(-c2ccc(C(F)(F)F)cc2C(F)(F)F)c1)CN1CCc2ccccc2C1 (centres unmarked) [Compound D124] | – | 101 to 1000
28 | CN(C)c1ncc(-c2cccc(OCC(O)CN3CCc4ccccc4C3)c2)cn1 (centres unmarked) [Compound D125] | – | 101 to 1000
29 | O=C(c1cccc(-c2cccc(OCC(O)CN3CCc4ccccc4C3)c2)c1)N1CCOCC1 (centres unmarked) [Compound D126] | – | 101 to 1000
30 | Cn1ncc2ccc(-c3cc(COCC(O)CN4CCc5ccccc5C4)on3)cc21 (centres unmarked) [Compound D136] | – | 101 to 1000
31 | Cn1ccc2cnc(-c3cccc(OCC(O)CN4CCc5ccccc5C4)c3)nc21 (centres unmarked) [Compound D141] | – | < 100
32 | O=C(Nc1cccc(OCC(O)CN2CCc3ccccc3C2)c1)c1cnccn1 (centres unmarked) [Compound D145] | – | 101 to 1000
33 | Cn1nccc1C(=O)Nc1cccc(OCC(O)CN2CCc3ccccc3C2)c1 (centres unmarked) [Compound D160] | – | 1000 to 10000
34 | O=C(Nc1cccc(OCC(O)CN2CCc3ccccc3C2)c1)c1cncnc1 (centres unmarked) [Compound D161] | – | 1000 to 10000
35 | Cn1ccc(C(=O)Nc2cccc(OCC(O)CN3CCc4ccccc4C3)c2)n1 (centres unmarked) [Compound D162] | – | 1000 to 10000
36 | OC(COc1cccc(-c2ccccc2Oc2ccccc2)c1)CN1CCc2ccccc2C1 (centres unmarked) [Compound D167] | – | 101 to 1000
37 | Cn1ccc2ccc(-c3cccc(OCC(O)CN4CCc5ccccc5C4)c3)nc21 (centres unmarked) [Compound D176] | – | < 100
38 | Cn1cnc(C(=O)Nc2cccc(OCC(O)CN3CCc4ccccc4C3)c2)c1 (centres unmarked) [Compound D183] | – | 1000 to 10000
39 | Cn1cnc2ccc(-c3cccc(OCC(O)CN4CCc5ccccc5C4)c3)nc21 (centres unmarked) [Compound D189] | – | < 100
40 | Cn1cnc2cnc(-c3cccc(OCC(O)CN4CCc5ccccc5C4)c3)nc21 (centres unmarked) [Compound D191] | – | 101 to 1000
41 | Cn1cnc2ccc(-c3cncc(NCC(O)CN4CCc5ccccc5C4)c3)cc21 (centres unmarked) [Compound D199] | – | < 100
42 | Cn1ncc2ccc(-c3cc(NCC(O)CN4CCc5ccccc5C4)ncn3)cc21 (centres unmarked) [Compound D205] | – | 101 to 1000
43 | Cn1cnc2ccc(-c3cc(NCC(O)CN4CCc5ccccc5C4)ncn3)cc21 (centres unmarked) [Compound D207] | – | 101 to 1000

Continued, values first:

Row | IC50 [1] [nM] | IC50 (Table D-2) [nM] | Structure (SMILES)
44 | – | < 100 | Cn1ncc2ccc(-c3cccc(OCC(O)CN4CCc5ccccc5C4)c3)cc21 (centres unmarked) [Compound D106]
45 | – | 101 to 1000 | OC(COc1cccc(-c2ccc3[nH]ncc3c2)c1)CN1CCc2ccccc2C1 (centres unmarked) [Compound D107]
46 | – | < 100 | Cn1ncc2cc(-c3cccc(OCC(O)CN4CCc5ccccc5C4)c3)ccc21 (centres unmarked) [Compound D108]
47 | – | 101 to 1000 | O=c1[nH]c2ccc(-c3cccc(OCC(O)CN4CCc5ccccc5C4)c3)cc2[nH]1 (centres unmarked) [Compound D109]
48 | – | 101 to 1000 | Cc1ccncc1-c1cccc(OCC(O)CN2CCc3ccccc3C2)c1 (centres unmarked) [Compound D113]
49 | – | 101 to 1000 | OC(COc1cccc(-c2ccc(C(F)(F)F)cc2Cl)c1)CN1CCc2ccccc2C1 (centres unmarked) [Compound D127]
50 | – | 101 to 1000 | CS(=O)(=O)Nc1ccc(-c2cccc(OCC(O)CN3CCc4ccccc4C3)c2)cc1 (centres unmarked) [Compound D129]
51 | – | 101 to 1000 | CS(=O)(=O)c1cccc(-c2cccc(OCC(O)CN3CCc4ccccc4C3)c2)c1 (centres unmarked) [Compound D130]
52 | – | 101 to 1000 | CS(=O)(=O)c1ccccc1-c1cccc(OCC(O)CN2CCc3ccccc3C2)c1 (centres unmarked) [Compound D131]
53 | – | 101 to 1000 | OC(COc1cccc(-c2ccccc2C(F)(F)F)c1)CN1CCc2ccccc2C1 (centres unmarked) [Compound D132]
54 | – | 101 to 1000 | COc1ccc(Cl)cc1-c1cccc(OCC(O)CN2CCc3ccccc3C2)c1 (centres unmarked) [Compound D134]
55 | – | 101 to 1000 | COC(=O)c1cccc(-c2cccc(OCC(O)CN3CCc4ccccc4C3)c2)c1 (centres unmarked) [Compound D135]
56 | – | 101 to 1000 | CC(=O)c1ccc(-c2cccc(OCC(O)CN3CCc4ccccc4C3)c2)cc1 (centres unmarked) [Compound D137]
57 | – | 101 to 1000 | Cc1ccc(F)c(-c2cccc(OCC(O)CN3CCc4ccccc4C3)c2)c1 (centres unmarked) [Compound D138]
58 | – | 101 to 1000 | OC(COc1cccc(-c2cccnc2F)c1)CN1CCc2ccccc2C1 (centres unmarked) [Compound D139]
59 | – | 101 to 1000 | Cn1ccc2ccc(-c3cccc(OCC(O)CN4CCc5ccccc5C4)c3)cc21 (centres unmarked) [Compound D147]
60 | – | 101 to 1000 | O=C1NCc2ccc(-c3cccc(OCC(O)CN4CCc5ccccc5C4)c3)cc21 (centres unmarked) [Compound D148]
61 | – | 101 to 1000 | CN1CCN(c2ccc(-c3cccc(OCC(O)CN4CCc5ccccc5C4)c3)cn2)CC1 (centres unmarked) [Compound D149]
62 | – | 101 to 1000 | CC(C)(C)OCc1cccc(-c2cccc(OCC(O)CN3CCc4ccccc4C3)c2)c1 (centres unmarked) [Compound D150]

Row | IC50 [1] [nM] | IC50 (Table D-2) [nM] | Structure (SMILES)
63 | – | 101 to 1000 | CN(C)c1ccc(-c2cccc(OCC(O)CN3CCc4ccccc4C3)c2)cc1 (centres unmarked) [Compound D151]
64 | – | 101 to 1000 | NC(=O)c1ccc(-c2cccc(OCC(O)CN3CCc4ccccc4C3)c2)cc1 (centres unmarked) [Compound D152]
65 | – | 101 to 1000 | O=C1COc2ccc(-c3cccc(OCC(O)CN4CCc5ccccc5C4)c3)cc2N1 (centres unmarked) [Compound D156]
66 | – | 1000 to 10000 | OC(COc1cccc(-c2ccc3cnoc3c2)c1)CN1CCc2ccccc2C1 (centres unmarked) [Compound D166]
67 | – | 101 to 1000 | COc1ccc(-c2cccc(OCC(O)CN3CCc4ccccc4C3)c2)cc1Cl (centres unmarked) [Compound D168]
68 | – | 101 to 1000 | CC(=O)Nc1cccc(-c2cccc(OCC(O)CN3CCc4ccccc4C3)c2)c1 (centres unmarked) [Compound D169]
69 | – | 101 to 1000 | OC(COc1cccc(-c2csc3ccccc23)c1)CN1CCc2ccccc2C1 (centres unmarked) [Compound D170]
70 | – | 101 to 1000 | NC(=O)c1cccc(-c2cccc(OCC(O)CN3CCc4ccccc4C3)c2)c1 (centres unmarked) [Compound D171]
71 | – | 101 to 1000 | N#Cc1cccc(-c2cccc(OCC(O)CN3CCc4ccccc4C3)c2)c1 (centres unmarked) [Compound D172]
72 | – | < 100 | Cn1cnc2ccc(-c3cccc(OC[C@H](O)CN4CCc5ccccc5C4)c3)cc21 [Compound D174]
73 | – | 1000 to 10000 | COC(=O)c1cncc(-c2cccc(OCC(O)CN3CCc4ccccc4C3)c2)c1 (centres unmarked) [Compound D180]
74 | – | 1000 to 10000 | CNC(=O)c1cncc(-c2cccc(OCC(O)CN3CCc4ccccc4C3)c2)c1 (centres unmarked) [Compound D182]
75 | – | 101 to 1000 | O=C(c1cccc(-c2cccc(OCC(O)CN3CCc4ccccc4C3)c2)c1)N1CCCC1 (centres unmarked) [Compound D185]
76 | – | 101 to 1000 | CNC(=O)c1cccc(-c2cccc(OCC(O)CN3CCc4ccccc4C3)c2)c1 (centres unmarked) [Compound D186]
77 | – | 101 to 1000 | Cc1cn(C)c2cc(-c3cccc(OCC(O)CN4CCc5ccccc5C4)c3)ccc12 (centres unmarked) [Compound D187]
78 | – | 101 to 1000 | OC(COc1cccc(-c2ccc3ncoc3c2)c1)CN1CCc2ccccc2C1 (centres unmarked) [Compound D188]
79 | – | 101 to 1000 | OC(COc1cccc(-c2cc(OC(F)(F)F)ccc2Cl)c1)CN1CCc2ccccc2C1 (centres unmarked) [Compound D200]
80 | – | 101 to 1000 | CC(C)Oc1ccc(F)c(-c2cccc(OCC(O)CN3CCc4ccccc4C3)c2)c1 (centres unmarked) [Compound D201]

Source: US20150344457A1, “METHODS OF INHIBITING PRMT5” (EPIZYME, INC., priority 2012, published 2015)
